Patent US20210008176A1, “COMPOSITIONS COMPRISING SULFORAPHANE OR A SULFORAPHANE PRECURSOR AND MAGNESIUM” (NUTRAMAX LABORATORIES, INC., priority 2012, published 2021)

Legend:
[1] = test system: broccoli sprout-derived myrosinase; test: Consumption of glucoraphanin by myrosinase as a function of ascorbic acid concentration; assay type: biochemical; details: for glucoraphanin (GR) content: 38° C.; for Slope (rate of glucoraphanin consumption): linear regression 0-60 min
Procedure: Consumption of Glucoraphanin as a Function of the Ascorbic Acid Concentration.
About 250 mg of broccoli seed extract containing about 12% (w/w) glucoraphanin were subjected to hydrolysis by a fixed concentration of broccoli sprout-derived myrosinase in the presence of variable concentration of ascorbic acid, ranging from 0 to 600 μmoles/Liter. The reaction mixtures were thermostated at 38° C.; aliquots were withdrawn every 15 minutes for 60 minutes, and concentration of glucoraphanin determined chromatographically. The rate of glucoraphanin consumption was interpreted as the rate its conversion to sulforaphane. Graphical representation of glucoraphanin content reduction as a function of increasing ascorbic acid concentration results in a series of linear plots; the slopes of the linear regression lines reflect the rate of glucoraphanin consumption, in μmoles/minute. It is apparent that in the presence of 600 μmoles/Liter concentration of ascorbic acid, the reaction rate increased 13-fold relative to that which proceeded in the absence of modulatory effects of ascorbic acid.

[2] = test system: myrosinase; test: Equimolar conversion of glucoraphanin to sulforaphane by myrosinase with and without ascorbic acid; assay type: biochemical, broccoli; details: control sample, without ascorbic acid
Procedure: A two-part experiment was conducted to further elucidate the role of ascorbic acid in modulating myrosinase activity. […] A control sample contained no ascorbic acid, and the enzymatic conversion proceeded unassisted by a co-factor. PART 1. […] PART 2. While keeping the amount of broccoli seed extract fixed at 250 mg, the concentration of ascorbic acid was varied from 0.4 mmol/Liter to 3.8 mmol/Liter.

[3] = test system: monocyte chemoattractant protein (MCP-1); details: RAW cells, 1μg/mL LPS 30 minutes, then 24 hours treatment; 0.5 μM SFN, 2.5 mM MgSO4, or both
Procedure: The following study was conducted to determine the effect of the combination of sulforaphane and magnesium sulfate (MgSO4) on expression of monocyte chemoattractant protein (MCP-1), which is a mediator of inflammation. MCP-1 is chemokine which attracts monocytes, macrophages, and lymphocytes to sites of inflammation. A reduction in MCP-1 is beneficial for the health of endothelial cells which line the cardiovascular system.
In the study, RAW cells were activated with 1μg/mL lipopolysaccharide (LPS) for 30 minutes to stimulate the induction of MCP-1 gene expression. Following LPS treatment, the cells were treated with one of the following: (i) DMSO (vehicle control), (ii) 0.5 μM SFN, (iii) 2.5 mM MgSO4, or (iv) the combination of 0.5 μM SFN and 2.5 mM MgSO4. After treatment for 24 hours, the MCP-1 levels were assessed via quantitative RT-PCR.

C[S+]([O-])CCCC/C(=N\OS(=O)(=O)O)S[C@@H]1O[C@H](CO)[C@@H](O)[C@H](O)[C@H]1O (stereo partly drawn) [GR, 4-methylsulfinylbutyl glucosinolate]
glucoraphanin (GR) content ([1]; ascorbic acid 0 μM, 0 min): 93.36 µmol | glucoraphanin (GR) content ([1]; ascorbic acid 0 μM, 15 min): 92.24 µmol | glucoraphanin (GR) content ([1]; ascorbic acid 0 μM, 30 min): 90.71 µmol | glucoraphanin (GR) content ([1]; ascorbic acid 0 μM, 45 min): 89.44 µmol | glucoraphanin (GR) content ([1]; ascorbic acid 0 μM, 60 min): 87.79 µmol | Slope (rate of glucoraphanin consumption) ([1]; ascorbic acid 0 μM): -0.09293 µmol/min | glucoraphanin (GR) content ([1]; ascorbic acid 50 μM, 0 min): 93.36 µmol | glucoraphanin (GR) content ([1]; ascorbic acid 50 μM, 15 min): 89.20 µmol | glucoraphanin (GR) content ([1]; ascorbic acid 50 μM, 30 min): 84.24 µmol | glucoraphanin (GR) content ([1]; ascorbic acid 50 μM, 45 min): 80.30 µmol | glucoraphanin (GR) content ([1]; ascorbic acid 50 μM, 60 min): 76.36 µmol | Slope (rate of glucoraphanin consumption) ([1]; ascorbic acid 50 μM): -0.286 µmol/min | glucoraphanin (GR) content ([1]; ascorbic acid 125 μM, 0 min): 93.36 µmol | glucoraphanin (GR) content ([1]; ascorbic acid 125 μM, 15 min): 84.52 µmol | glucoraphanin (GR) content ([1]; ascorbic acid 125 μM, 30 min): 75.92 µmol | glucoraphanin (GR) content ([1]; ascorbic acid 125 μM, 45 min): 68.09 µmol | glucoraphanin (GR) content ([1]; ascorbic acid 125 μM, 60 min): 59.41 µmol | Slope (rate of glucoraphanin consumption) ([1]; ascorbic acid 125 μM): -0.5622 µmol/min | glucoraphanin (GR) content ([1]; ascorbic acid 250 μM Filtered, 0 min): 93.36 µmol | glucoraphanin (GR) content ([1]; ascorbic acid 250 μM Filtered, 15 min): 86.31 µmol | glucoraphanin (GR) content ([1]; ascorbic acid 250 μM Filtered, 30 min): 79.44 µmol | glucoraphanin (GR) content ([1]; ascorbic acid 250 μM Filtered, 45 min): 71.94 µmol | glucoraphanin (GR) content ([1]; ascorbic acid 250 μM Filtered, 60 min): 65.18 µmol | Slope (rate of glucoraphanin consumption) ([1]; ascorbic acid 250 μM Filtered): -0.4714 µmol/min | glucoraphanin (GR) content ([1]; ascorbic acid 250 μM, 0 min): 93.36 µmol | glucoraphanin (GR) content ([1]; ascorbic acid 250 μM, 15 min): 80.95 µmol | glucoraphanin (GR) content ([1]; ascorbic acid 250 μM, 30 min): 69.06 µmol | glucoraphanin (GR) content ([1]; ascorbic acid 250 μM, 45 min): 57.63 µmol | glucoraphanin (GR) content ([1]; ascorbic acid 250 μM, 60 min): 45.76 µmol | Slope (rate of glucoraphanin consumption) ([1]; ascorbic acid 250 μM): -0.7901 µmol/min | glucoraphanin (GR) content ([1]; ascorbic acid 400 μM, 0 min): 93.36 µmol | glucoraphanin (GR) content ([1]; ascorbic acid 400 μM, 15 min): 78.32 µmol | glucoraphanin (GR) content ([1]; ascorbic acid 400 μM, 30 min): 62.78 µmol | glucoraphanin (GR) content ([1]; ascorbic acid 400 μM, 45 min): 47.67 µmol | glucoraphanin (GR) content ([1]; ascorbic acid 400 μM, 60 min): 33.15 µmol | Slope (rate of glucoraphanin consumption) ([1]; ascorbic acid 400 μM): -1.007 µmol/min | glucoraphanin (GR) content ([1]; ascorbic acid 600 μM, 0 min): 93.36 µmol | glucoraphanin (GR) content ([1]; ascorbic acid 600 μM, 15 min): 75.02 µmol | glucoraphanin (GR) content ([1]; ascorbic acid 600 μM, 30 min): 55.66 µmol | glucoraphanin (GR) content ([1]; ascorbic acid 600 μM, 45 min): 37.50 µmol | glucoraphanin (GR) content ([1]; ascorbic acid 600 μM, 60 min): 22.09 µmol | Slope (rate of glucoraphanin consumption) ([1]; ascorbic acid 600 μM): -1.2 µmol/min | stoichiometry of glucoraphanin conversion to sulforaphane [2]: equimolar conversion

O=S(=O)([O-])[O-].[Mg+2] [magnesium sulfate]
reduction in MCP-1 levels [3]: approximately 16%

C[S+]([O-])CCCCN=C=S (stereo not drawn) [sulforaphane, 1-isothiocyanato-4-methylsulfinylbutane]
reduction in MCP-1 levels [3]: approximately 29%
